Source: ChEMBL document CHEMBL1146748, “Synthesis and preliminary biological evaluation of truncated zoanthenol analogues” (Bioorg Med Chem Lett, 2004)

Assays:
MH60 [1] = experiment: Compound was tested for inhibition of interleukin-6-dependent MH60 cell growth; assay type: functional, cell-based; details: Mus musculus
MH60 [2] = experiment: Compound was tested for inhibition of interleukin-6-dependent MH60 cell growth; Very weak inhibition; assay type: functional, cell-based

| SMILES | IC50 (MH60 [1]) [µM] | IC50 (MH60 [2]) |
| --- | --- | --- |
| CC1=CC(=O)[C@H]2CC(=O)[C@H]3[C@@](C)(CC4=[N+]5C[C@H]6C[C@H](C)C[C@]5(CC[C@@]4(C)[C@@]3(C)CC(=O)O)O6)[C@@H]2C1 | 13 |  |
| CC1=CC(=O)[C@@H]2[C@@H](C1)[C@]1(C)CC3=[N+]4C[C@H]5C[C@H](C)C[C@]4(CC[C@@]3(C)[C@@](C)(CC(=O)O)[C@H]1C(=O)[C@@H]2C)O5 | 26 |  |
| Cc1cc(O)c2c(c1)[C@]1(C)CC(=O)[C@@]3(C)CCCC[C@@]3(C)[C@@]1(C)C(=O)[C@@H]2C |  | Very weak inhibition |
| C[C@H]1C[C@@H]2CN3C45CCC[C@](C)(CC(=O)O4)[C@]5(C)CC[C@@]3(C1)O2 |  | Very weak inhibition |
| C[C@H]1C[C@@H]2C[N+]3=C4CCC[C@](C)(CC(=O)O)[C@]4(C)CC[C@@]3(C1)O2 | ~70 |  |
| CCCCC1=C(C)C(=O)[C@](C)(CN2c3ccccc3[C@]3(O)CCOC23)C1=O (stereo partly specified) [MADINDOLINE A] | 8 |  |
